# Laboratory results from US20100267561A1, “HERBICIDAL PYRIDAZINONE DERIVATIVES” (priority 2007, published 2010).
# Legend:
# Format in all cases: in vivo
# [1] = system: ducksalad (Heteranthera limosa); experiment: Test B flooded paddy test plant response
# How it was run: (§1)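 2-leaf plants; pots flooded 3 cm above soil; compound added to paddy water; depth maintained. Greenhouse 13–15 d. Visual rating vs controls, 0 (no effect) to 100 (complete control); dash = no result.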
# [2] = system: barnyardgrass (Echinochloa crus-galli); experiment: Test B flooded paddy test plant response
# How it was run: as §1
# [3] = system: umbrella sedge (Cyperus difformis); experiment: Test B flooded paddy test plant response
# How it was run: as §1
# [4] = system: chickweed (Stellaria media); experiment: Test B postemergence plant response; conditions: Postemergence
# How it was run: (§2)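 Compounds applied after emergence to 2–18 cm plants; response read visually 13–15 days later on 0 (none) to 100 (complete control); a dash marks no result.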
# [5] = system: windgrass (Apera spica-venti); experiment: Test B postemergence plant response; conditions: Postemergence
# How it was run: as §2
# [6] = system: winter barley (Hordeum vulgare); experiment: Test B postemergence plant response; conditions: Postemergence, scale 0 to 100
# How it was run: as §2
# [7] = system: canarygrass (Phalaris minor); experiment: Test B postemergence plant response; conditions: Postemergence
# How it was run: as §2
# [8] = system: giant foxtail (Setaria faberi); experiment: Test A pre-/postemergence plant response
# How it was run: (§3)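 Both pre- and postemergence treatment given concurrently; postemergence seedlings measured 2–10 cm at the one- to two-leaf stage. Visual injury, 0–100 scale versus untreated, at ~10 days.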
# [9] = system: barnyardgrass (Echinochloa crus-galli); experiment: Test A pre-/postemergence plant response
# How it was run: as §3
# [10] = system: pigweed (Amaranthus retroflexus); experiment: Test A pre-/postemergence plant response
# How it was run: as §3
# [11] = system: morningglory (Ipomoea coccinea); experiment: Test A pre-/postemergence plant response
# How it was run: as §3
# [12] = system: large crabgrass (Digitaria sanguinalis); experiment: Test A pre-/postemergence plant response
# How it was run: as §3
# [13] = system: velvetleaf (Abutilon theophrasti); experiment: Test A pre-/postemergence plant response
# How it was run: as §3
# [14] = system: wheat (Triticum aestivum); experiment: Test A pre-/postemergence plant response
# How it was run: as §3
# [15] = Flood (flooded paddy test), 62 g ai/ha, scale 0 to 100, 0 no effect, 100 complete control
# [16] = Flood (flooded paddy test), 125 g ai/ha, scale 0 to 100, 0 no effect, 100 complete control
# [17] = Flood (flooded paddy test), 250 g ai/ha, scale 0 to 100, 0 no effect, 100 complete control
# [18] = Flood, 31 g ai/ha, scale 0 to 100
# [19] = 31 g ai/ha, scale 0 to 100, 0 no effect, 100 complete control
# [20] = Postemergence, 125 g ai/ha, 0 to 100 scale, 0 no effect, 100 complete control
# [21] = Postemergence, 500 g ai/ha, 0 to 100 scale, 0 no effect, 100 complete control
# [22] = Preemergence, 125 g ai/ha, 0 to 100 scale (0 no effect, 100 complete control)
# [23] = Preemergence, 500 g ai/ha, 0 to 100 scale (0 no effect, 100 complete control)
substance,measurement,setting,value
"5-[3-(4-chlorophenyl)-5-methyl-1H-pyrazol-1-yl]-1,6-dihydro-1-methyl-6-oxo-4-pyridazinyl-1-methylethyl carbonate [Compound 7]","Plant response rating, Ducksalad",[1]; [15],0
same,"Plant response rating, Ducksalad",[1]; [16],20
same,"Plant response rating, Ducksalad",[1]; [17],40
same,"Plant response rating, Ducksalad",[1]; [18],0
same,"Plant response rating, Barnyardgrass",[2]; [15],45
same,"Plant response rating, Barnyardgrass",[2]; [16],65
same,"Plant response rating, Barnyardgrass",[2]; [17],85
same,"Plant response rating, Barnyardgrass",[2]; [18],20
same,"Plant response rating, Sedge, Umbrella",[3]; [15],80
same,"Plant response rating, Sedge, Umbrella",[3]; [16],80
same,"Plant response rating, Sedge, Umbrella",[3]; [17],80
same,"Plant response rating, Sedge, Umbrella",[3]; [18],70
same,"Plant response rating, Chickweed",[4]; [19],0
same,"Plant response rating, Chickweed","[4]; 62 g ai/ha, scale 0 to 100",0
same,"Plant response rating, Chickweed","[4]; 125 g ai/ha, scale 0 to 100",0
same,"Plant response rating, Chickweed","[4]; 250 g ai/ha, scale 0 to 100",0
same,"Plant response rating, Windgrass",[5]; [19],80
same,"Plant response rating, Windgrass","[5]; 62 g ai/ha, scale 0 to 100",85
same,"Plant response rating, Windgrass","[5]; 125 g ai/ha, scale 0 to 100",100
same,"Plant response rating, Windgrass","[5]; 250 g ai/ha, scale 0 to 100",100
same,"Plant response rating, Barley",[6]; 62 g ai/ha,0
same,"Plant response rating, Barley",[6]; 125 g ai/ha,0
same,"Plant response rating, Barley",[6]; 250 g ai/ha,0
same,"Plant response rating, Canarygrass",[7]; [19],90
same,"Plant response rating, Canarygrass","[7]; 125 g ai/ha, scale 0 to 100",90
same,"Plant response rating, Canarygrass","[7]; 250 g ai/ha, scale 0 to 100",90
same,"Plant response rating, Foxtail, Giant",[8]; [20],90
same,"Plant response rating, Foxtail, Giant",[8]; [21],90
same,"Plant response rating, Foxtail, Giant",[8]; [22],100
same,"Plant response rating, Foxtail, Giant",[8]; [23],100
same,"Plant response rating, Barnyardgrass",[9]; [20],80
same,"Plant response rating, Barnyardgrass",[9]; [21],100
same,"Plant response rating, Barnyardgrass",[9]; [22],100
same,"Plant response rating, Barnyardgrass",[9]; [23],100
same,"Plant response rating, Pigweed",[10]; [20],0
same,"Plant response rating, Pigweed",[10]; [21],0
same,"Plant response rating, Pigweed",[10]; [22],0
same,"Plant response rating, Pigweed",[10]; [23],0
same,"Plant response rating, Morningglory",[11]; [20],0
same,"Plant response rating, Morningglory",[11]; [21],20
same,"Plant response rating, Morningglory",[11]; [22],20
same,"Plant response rating, Morningglory",[11]; [23],20
same,"Plant response rating, Crabgrass, Large",[12]; [20],80
same,"Plant response rating, Crabgrass, Large",[12]; [21],90
same,"Plant response rating, Crabgrass, Large",[12]; [22],100
same,"Plant response rating, Crabgrass, Large",[12]; [23],100
same,"Plant response rating, Velvetleaf",[13]; [20],20
same,"Plant response rating, Velvetleaf",[13]; [21],40
same,"Plant response rating, Velvetleaf",[13]; [22],0
same,"Plant response rating, Velvetleaf",[13]; [23],30
same,"Plant response rating, Wheat",[14]; [20],40
same,"Plant response rating, Wheat",[14]; [21],60
same,"Plant response rating, Wheat",[14]; [22],60
same,"Plant response rating, Wheat",[14]; [23],80
